Source: patent US8586109B2, “Annatto extract compositions including tocotrienols and tocopherols and methods of use” (American River Nutrition, Inc., priority 2003, dated 2013)

What was measured:
[1] = test system: C-reactive protein; details: higher dosage needed; cited from earlier work
[2] = test system: essential hypertension; assay: Hypertension (Example 13); details: in vivo
Source text: Also, C-5 unsubstituted tocols (i.e., all delta and gamma isomers) had this effect.

[3] = test system: spontaneous hypertensive rats (SHR); details: Newaz and Nawal 1999; cited from earlier work
[4] = test system: cholesterol; details: Pearce et al. 1992; cited from earlier work
[5] = some biologic systems; cited from earlier work
[6] = cited from earlier work
[7] = test system: IKBKAP; details: Anderson et al. 2003; cited from earlier work

Row | Molecule | required dosage to lower CRP to a comparable range, relative to annatto tocotrienols [1] | NOS activity [2] | development of increased blood pressure [2] | essential hypertension [2] | development of increased blood pressure [3] | isomeric potency of cholesterol reduction (relative) [4] | anti-oxidant power compared to alpha-T1 [5] | Biologic activity relative to alpha-T3 ([6]; greater than alpha-T3) | Biologic activity relative to gamma-T3 ([6]; greater than gamma-T3) | increase of IKBKAP gene transcription [7] [fold]
1 | Cc1c(C)c2c(c(C)c1O)CC[C@@](C)(CCC[C@H](C)CCC[C@H](C)CCCC(C)C)O2 [alpha-T1, Alpha-tocopherol] | approximately 10 fold | – | – | – | – | – | – | – | – | –
2 | CC(C)=CCC/C(C)=C/CC/C(C)=C/CC[C@]1(C)CCc2cc(O)c(C)c(C)c2O1 [Gamma-T3, gamma-tocotrienol] | – | increased NOS activity | prevented the development of increased blood pressure | reduced essential hypertension | prevent the development of increased blood pressure | five-fold greater than alpha-T3 | – | – | – | –
3 | Alpha-tocotrienol | – | – | – | – | – | at least five-fold less active | (40-60X in some biologic systems). First discovered to reduce cholesterol, | – | – | –
4 | CC(C)=CCC/C(C)=C/CC/C(C)=C/CC[C@]1(C)CCc2cc(O)cc(C)c2O1 [Delta-tocotrienol, delta-tocotrienol] | – | increased NOS activity | – | reduced essential hypertension | – | greater than gamma-T3 | – | 4-10 times | 1-2 times | 3.5
